The NIST ThermoML archive (doi:10.1016/j.tca.2005.11.024)
Numbers after ± are expanded uncertainties.

Experiments:
[1] = DTA
[2] = molar heat capacity at constant pressure; settings: 101.33 kPa, Small sample (50 mg) DSC
[3] = Molar enthalpy of transition or fusion; settings: DSC

O=S1(=O)CCCOC1 [1,3-oxathiane-3,3-dioxide]
Crystal
Settings | Molar enthalpy of transition or fusion [kcal/mol] | Normal melting temperature [°C]
[1] | – | 79.8 ± 2
[3] | 3.63 ± 0.12 | –

[2], Crystal
Settings | molar heat capacity at constant pressure [J/K/mol]
268.15 K | 133.2 ± 2.7
270.15 K | 134.5 ± 2.7
275.15 K | 136.5 ± 2.7
280.15 K | 138.6 ± 2.8
285.15 K | 140.6 ± 2.8
290.15 K | 143.3 ± 2.9
295.15 K | 146.3 ± 2.9
298.15 K | 148.1 ± 3
300.15 K | 149.6 ± 3
305.15 K | 153.8 ± 3.1
310.15 K | 158.6 ± 3.2
315.15 K | 161.5 ± 3.2
320.15 K | 164.8 ± 3.3
325.15 K | 168.3 ± 3.4
330.15 K | 171.7 ± 3.4
335.15 K | 176.3 ± 3.5

c1cscn1 [1,3-thiazole]
Settings | molar heat capacity at constant pressure [J/K/mol]
[2], 298.15 K, Liquid | 122.1 ± 2.2

O=S1(=O)CCSCC1 [1,4-dithiane sulfone]
Crystal
Settings | Molar enthalpy of transition or fusion [kcal/mol] | Normal melting temperature [°C]
[1] | – | 201.1 ± 0.5
[3] | 6.21 ± 0.0956 | –

[2], Crystal
Settings | molar heat capacity at constant pressure [J/K/mol]
268.15 K | 141 ± 2.8
270.15 K | 141.7 ± 2.8
275.15 K | 143.8 ± 2.9
280.15 K | 145.9 ± 2.9
285.15 K | 148.1 ± 3
290.15 K | 149.8 ± 3
295.15 K | 151.8 ± 3
298.15 K | 152.7 ± 3.1
300.15 K | 153.5 ± 3.1
305.15 K | 155.6 ± 3.1
310.15 K | 158.1 ± 3.2
315.15 K | 160.5 ± 3.2
320.15 K | 163 ± 3.3
325.15 K | 165.5 ± 3.3
330.15 K | 167.5 ± 3.4
335.15 K | 168.9 ± 3.4
340.15 K | 171 ± 3.4
345.15 K | 173 ± 3.5
350.15 K | 175.1 ± 3.5
355.15 K | 177.4 ± 3.5
360.15 K | 179.5 ± 3.6
365.15 K | 181.6 ± 3.6
370.15 K | 184.4 ± 3.7
375.15 K | 186.2 ± 3.7
380.15 K | 189.1 ± 3.8
385.15 K | 191.2 ± 3.8
390.15 K | 195.1 ± 3.9
395.15 K | 199.6 ± 4
400.15 K | 203.3 ± 4.1
405.15 K | 205.7 ± 4.1
410.15 K | 209.1 ± 4.2
415.15 K | 212.2 ± 4.2
420.15 K | 215.5 ± 4.3
425.15 K | 218.8 ± 4.4
430.15 K | 222.8 ± 4.5
435.15 K | 226.2 ± 4.5
440.15 K | 230.2 ± 4.6
445.15 K | 234.7 ± 4.7
450.15 K | 239.4 ± 4.8
454.15 K | 243.2 ± 4.9

O=S1(=O)CCOCC1 [1,4-oxathiane 4,4-dioxide]
Settings | Molar enthalpy of transition or fusion [kcal/mol] | Normal melting temperature [°C]
[1], Crystal 1 | – | 130.2 ± 0.4
[3], Crystal 2 | 4.83 ± 0.12 | –

[2], Crystal 2
Settings | molar heat capacity at constant pressure [J/K/mol]
268.15 K | 134.2 ± 2.7
270.15 K | 135.4 ± 2.7
275.15 K | 137.3 ± 2.7
280.15 K | 139.3 ± 2.8
285.15 K | 141.7 ± 2.8
290.15 K | 144.2 ± 2.9
295.15 K | 146.6 ± 2.9
298.15 K | 147.9 ± 3
300.15 K | 148.9 ± 3
305.15 K | 151.2 ± 3
310.15 K | 153.1 ± 3.1
315.15 K | 155.3 ± 3.1
320.15 K | 157.6 ± 3.2
325.15 K | 159.9 ± 3.2
330.15 K | 162 ± 3.2
335.15 K | 164.1 ± 3.3
340.15 K | 166.9 ± 3.3
345.15 K | 170.3 ± 3.4
350.15 K | 172.8 ± 3.5
355.15 K | 175.5 ± 3.5
360.15 K | 177.7 ± 3.6
365.15 K | 180.1 ± 3.6
370.15 K | 182.5 ± 3.7
375.15 K | 185.6 ± 3.7
380.15 K | 188.6 ± 3.8
385.15 K | 191.5 ± 3.8
390.15 K | 194.7 ± 3.9

c1csc(-c2cccs2)c1 [2,2'-bithienyl]
Crystal
Settings | Molar enthalpy of transition or fusion [kcal/mol] | Normal melting temperature [°C]
[1] | – | 31.1 ± 0.5
[3] | 3.94 ± 0.12 | –

[2], Crystal
Settings | molar heat capacity at constant pressure [J/K/mol]
263.15 K | 175.4 ± 3.5
265.15 K | 176.2 ± 3.5
270.15 K | 178.3 ± 3.6
275.15 K | 182.4 ± 3.6
280.15 K | 185.6 ± 3.7
285.15 K | 189.3 ± 3.8
290.15 K | 192.9 ± 3.9
291.15 K | 193.6 ± 3.9
295.15 K | 198.5 ± 4
298.15 K | 205.5 ± 4.1
300.15 K | 218.1 ± 4.4

O=C(O)c1ccc(C(=O)O)s1 [2,5-thiophenedicarboxylic acid]
[2], Crystal
Settings | molar heat capacity at constant pressure [J/K/mol]
277.15 K | 161.4 ± 3.2
280.15 K | 162.7 ± 3.3
285.15 K | 163.7 ± 3.3
290.15 K | 164.7 ± 3.3
295.15 K | 166.4 ± 3.3
298.15 K | 167.1 ± 3.3
300.15 K | 167.7 ± 3.4
305.15 K | 169.5 ± 3.4
310.15 K | 171 ± 3.4
315.15 K | 173.1 ± 3.5
320.15 K | 175.1 ± 3.5
325.15 K | 177 ± 3.5
330.15 K | 178.1 ± 3.6
335.15 K | 179.7 ± 3.6
340.15 K | 180.8 ± 3.6
345.15 K | 182.3 ± 3.6
350.15 K | 184 ± 3.7
355.15 K | 186.1 ± 3.7
360.15 K | 186.4 ± 3.7
365.15 K | 190.1 ± 3.8
370.15 K | 192.4 ± 3.8
375.15 K | 194.2 ± 3.9
380.15 K | 196.7 ± 3.9
385.15 K | 198.7 ± 4
390.15 K | 200.9 ± 4
395.15 K | 203.3 ± 4.1
400.15 K | 206.1 ± 4.1
405.15 K | 209.6 ± 4.2
410.15 K | 210.9 ± 4.2
415.15 K | 213.7 ± 4.3
420.15 K | 216.3 ± 4.3
425.15 K | 219.4 ± 4.4
430.15 K | 223.1 ± 4.5
435.15 K | 225.5 ± 4.5
440.15 K | 228.1 ± 4.6
445.15 K | 229.8 ± 4.6

CC(=O)c1cccs1 [2-acetylthiophene]
Settings | molar heat capacity at constant pressure [J/K/mol]
[2], 298.15 K, Liquid | 205.7 ± 4.2

O=C(O)Cc1cccs1 [2-thiopheneacetic acid]
Crystal
Settings | Molar enthalpy of transition or fusion [kcal/mol] | Normal melting temperature [°C]
[1] | – | 64.2 ± 0.5
[3] | 3.35 ± 0.12 | –

[2], Crystal
Settings | molar heat capacity at constant pressure [J/K/mol]
268.15 K | 146.3 ± 2.9
270.15 K | 147.2 ± 2.9
275.15 K | 149.6 ± 3
280.15 K | 150.9 ± 3
285.15 K | 153.4 ± 3.1
290.15 K | 155.2 ± 3.1
295.15 K | 157.6 ± 3.2
298.15 K | 159.2 ± 3.2
300.15 K | 160.3 ± 3.2
305.15 K | 163.9 ± 3.3
310.15 K | 166.1 ± 3.3
315.15 K | 168.5 ± 3.4
320.15 K | 170.5 ± 3.4
325.15 K | 173.6 ± 3.5

CC(=O)c1ccsc1 [3-acetylthiophene]
Crystal
Settings | Molar enthalpy of transition or fusion [kcal/mol] | Normal melting temperature [°C]
[1] | – | 60.5 ± 0.5
[3] | 4.52 ± 0.0956 | –

[2], Crystal
Settings | molar heat capacity at constant pressure [J/K/mol]
268.15 K | 134 ± 2.7
270.15 K | 134.9 ± 2.7
275.15 K | 136.7 ± 2.7
280.15 K | 138.7 ± 2.8
285.15 K | 140.3 ± 2.8
290.15 K | 142.4 ± 2.8
295.15 K | 145 ± 2.9
298.15 K | 146.1 ± 2.9
300.15 K | 147.5 ± 3

O=C(O)Cc1ccsc1 [3-thiopheneacetic acid]
Crystal
Settings | Molar enthalpy of transition or fusion [kcal/mol] | Normal melting temperature [°C]
[1] | – | 80.2 ± 0.5
[3] | 4.49 ± 0.143 | –

[2], Crystal
Settings | molar heat capacity at constant pressure [J/K/mol]
268.15 K | 151.1 ± 3
270.15 K | 152.6 ± 3.1
275.15 K | 155.6 ± 3.1
280.15 K | 158.5 ± 3.2
285.15 K | 160.8 ± 3.2
290.15 K | 163.6 ± 3.3
295.15 K | 166.6 ± 3.3
298.15 K | 168.4 ± 3.4
300.15 K | 169.8 ± 3.4
305.15 K | 172.7 ± 3.5
310.15 K | 175.3 ± 3.5
315.15 K | 178.8 ± 3.6
320.15 K | 182.7 ± 3.7
325.15 K | 186.8 ± 3.7
330.15 K | 190.6 ± 3.8
335.15 K | 193.9 ± 3.9
340.15 K | 198.7 ± 4

COC(=O)Cc1cccs1 [methyl 2-thiopheneacetate]
Settings | molar heat capacity at constant pressure [J/K/mol]
[2], 298.15 K, Liquid | 249.8 ± 3.9

COC(=O)Cc1ccsc1 [methyl 3-thiopheneacetate]
Settings | molar heat capacity at constant pressure [J/K/mol]
[2], 298.15 K, Liquid | 250.6 ± 4.9
